As a reminder, the IC50 is the concentration needed to halve the response being measured. In general, EC50 refers to the concentration giving half of the maximal effect.

Read-outs that look alike come from different tables or passages of the source.

The target in test [1] is T1, human DGKα (Homo sapiens, UniProt P23743).
T1 construct: TVMV protease cleavage site (C); Hexa-His (C); made in house; host or cells: Sf9 insect cells (baculovirus, Bac-to-Bac)
The test can be described thus: DGKα LIPGLO assay (extruded liposome substrate), in vitro DGK inhibition. Type of test: biochemical. Conditions: read-out: DGKa LIPGLO IC50.

Test [2] deals with naïve human CD8 T cells. The test can be described thus: Human CD8 T cells IFN-γ assay.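 Further: Naïve human CD8 T cells stimulated with plate-bound anti-CD3 and soluble anti-CD28, IFN-γ in supernatant quantified by AlphaLISA and converted to pg/mL.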 The settings on record: read-out: HuCD8 INFG Normalized EC50. Format: cell-based.
Experimental: Human CD8 T Cells IFN-γ Assay
Frozen naïve human CD8 T cells were thawed in AIM-V media, incubated for 2 h in 37° C., and counted. The 384-well tissue culture plate was coated overnight at 4° C. with 20 μL anti-human CD3 at 0.05 μg/mL in PBS, which was removed off the plate before 40,000 cells per 40 microliters CD8 T cells with 0.1 μg/mL soluble anti-human CD28 were added to each well. The compounds were transferred using an Echo liquid handler to the cell plate immediately after the cells were plated. After 20 h incubation at 37° C. incubator, 3 microliters per well supernatants transferred into a new 384-well white assay plate for cytokine measurement.
Interferon-γ (IFN-γ) was quantitated using the AlphLISA kit (Cat # AL217) as described by the manufacturer manual (Perkin Elmer). The counts from each well were converted to IFN-γ concentration (pg/mL).
Test [3] has as its target T2, human DGKζ (Homo sapiens, UniProt Q13574).
T2 construct: TVMV protease cleavage site (C); Hexa-His (C); made in house; host or cells: Sf9 insect cells (baculovirus, Bac-to-Bac)
The test is described as follows: DGKζ LIPGLO assay (extruded liposome substrate), in vitro DGK inhibition. Type of test: biochemical. Conditions: read-out: DGKz LIPGLO IC50.

For test [4], the system named is Human venous whole blood. The test can be described thus: Human whole blood IFN-γ assay.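 Further: blood from healthy donors exposed to compound for 1 h before stimulation with anti-CD3 and anti-CD28 at 1 µg/mL each, IFN-γ quantified in supernatant by AlphaLISA.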 Conditions: human whole blood, read-out: INFg Whole Blood Normalized Agonist EC50. Format: cell-based.
Experimental: Human Whole Blood IFN-γ Assay
Human venous whole blood (22.5 μL per well), obtained from healthy donors, was pre-treated with compounds for one hour at 37° C. in a humidified 95% air/5% CO2 incubator. The blood was stimulated with 2.5 μL anti-human CD3 and anti-CD28 mAb at a final concentration of 1 μg/mL each for 24 hours at 37° C. IFN-γ in the supernatants was measured using AlphLISA kit (Cat # AL217).
Where [5] appears, read: normalized to 3 μM reference compound with anti-CD3 plus anti-CD28 as 100% activation.
Where [6] appears, read: Homo sapiens, T-cell, 20 h, normalized to 3 μM reference compound with anti-CD3 plus anti-CD28 as 100% activation.
The mark [7] stands for this setting: Homo sapiens, 24 h, normalized to 3 μM reference compound with anti-CD3 plus anti-CD28 as 100% activation.
Where [8] appears, read: Homo sapiens, T-cell, 20 h, naïve human CD8 T cells, anti-CD3 plus anti-CD28, 3 μM reference compound = 100% activation.
The mark [9] stands for this setting: Homo sapiens, 24 h, anti-CD3 plus anti-CD28, 24 hours, 3 μM reference compound = 100% activation.
The mark [10] stands for this setting: anti-CD3 plus anti-CD28, 24 hours, 3 μM reference compound = 100% activation.

T2 sequence (Q13574 with tags, fused parts or gaps isoform Q13574-4): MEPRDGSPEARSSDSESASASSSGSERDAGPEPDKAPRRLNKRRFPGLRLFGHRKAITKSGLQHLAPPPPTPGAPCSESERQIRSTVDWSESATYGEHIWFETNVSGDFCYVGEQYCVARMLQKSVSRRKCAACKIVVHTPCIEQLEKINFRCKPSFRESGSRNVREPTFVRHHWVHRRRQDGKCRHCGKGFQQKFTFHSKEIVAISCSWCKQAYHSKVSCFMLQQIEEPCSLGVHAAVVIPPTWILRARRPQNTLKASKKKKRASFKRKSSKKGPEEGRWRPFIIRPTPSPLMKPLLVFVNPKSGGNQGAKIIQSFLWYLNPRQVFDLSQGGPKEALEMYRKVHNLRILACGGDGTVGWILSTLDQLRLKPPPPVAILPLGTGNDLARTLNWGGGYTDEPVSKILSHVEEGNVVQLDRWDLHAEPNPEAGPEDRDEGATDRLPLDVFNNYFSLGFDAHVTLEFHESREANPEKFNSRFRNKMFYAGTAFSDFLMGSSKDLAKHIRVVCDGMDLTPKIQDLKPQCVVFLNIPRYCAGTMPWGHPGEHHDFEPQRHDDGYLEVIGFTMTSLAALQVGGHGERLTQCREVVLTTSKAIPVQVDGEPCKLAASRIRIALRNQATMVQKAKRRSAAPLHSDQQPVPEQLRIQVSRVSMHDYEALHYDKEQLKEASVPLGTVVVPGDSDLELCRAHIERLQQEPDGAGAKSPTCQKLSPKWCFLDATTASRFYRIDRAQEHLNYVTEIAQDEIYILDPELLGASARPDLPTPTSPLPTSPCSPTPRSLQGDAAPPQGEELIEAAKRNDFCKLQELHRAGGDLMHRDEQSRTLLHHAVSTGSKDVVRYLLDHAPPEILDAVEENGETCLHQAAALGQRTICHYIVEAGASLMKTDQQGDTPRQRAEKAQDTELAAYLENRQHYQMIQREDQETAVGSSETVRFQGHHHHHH
T1 sequence (P23743 with tags, fused parts or gaps): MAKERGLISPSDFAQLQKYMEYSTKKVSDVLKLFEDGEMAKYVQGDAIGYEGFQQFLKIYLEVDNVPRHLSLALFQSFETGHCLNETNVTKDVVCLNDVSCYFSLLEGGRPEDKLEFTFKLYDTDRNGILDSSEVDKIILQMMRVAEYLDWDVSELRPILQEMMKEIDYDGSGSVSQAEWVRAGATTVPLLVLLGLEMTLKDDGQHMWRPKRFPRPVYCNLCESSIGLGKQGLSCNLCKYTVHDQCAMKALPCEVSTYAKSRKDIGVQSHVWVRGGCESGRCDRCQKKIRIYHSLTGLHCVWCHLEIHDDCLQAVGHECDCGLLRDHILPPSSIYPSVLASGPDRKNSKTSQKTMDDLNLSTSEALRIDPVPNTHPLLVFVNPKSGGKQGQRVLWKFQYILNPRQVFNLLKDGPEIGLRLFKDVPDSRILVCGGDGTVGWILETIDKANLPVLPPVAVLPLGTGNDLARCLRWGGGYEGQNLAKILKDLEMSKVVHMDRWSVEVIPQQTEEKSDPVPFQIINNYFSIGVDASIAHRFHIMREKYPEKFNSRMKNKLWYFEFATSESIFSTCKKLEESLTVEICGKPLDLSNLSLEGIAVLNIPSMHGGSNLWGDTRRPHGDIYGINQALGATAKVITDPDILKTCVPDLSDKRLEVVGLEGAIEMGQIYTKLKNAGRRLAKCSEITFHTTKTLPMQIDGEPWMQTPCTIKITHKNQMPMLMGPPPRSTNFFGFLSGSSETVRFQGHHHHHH

As for `Cc1ccc(C(c2cccc(Cl)c2)N2C[C@H](C)N(c3cc(=O)n(C)c4ccc(C#N)nc34)C[C@H]2C)nc1` (single isomer, unassigned) [Example 372], the IC50 in test [1] (liposome (LIPGLO) assay) was determined as 550 nM; in test [3] (liposome (LIPGLO) assay), 270 nM. In addition, the EC50 in test [2] (setting [5]) came out at 22 nM; in test [4] (setting [5]), 270 nM.
Consider `Cc1ccc(C(c2cccc(F)n2)N2C[C@H](C)N(c3cc(=O)n(C)c4ccc(C#N)nc34)C[C@H]2C)cc1` (stereo partly drawn) [Example 476, 8-((2S,5R)-4-((6-fluoropyridin-2-yl)(p-tolyl)methyl)-2,5-dimethylpiperazin-1-yl)-5-methyl-6-oxo-5,6-dihydro-1,5-naphthyridine-2-carbonitrile], for which the IC50 was found to be 940 nM in test [1] (liposome (LIPGLO) assay) and 300 nM in test [3] (liposome (LIPGLO) assay). Also, the concentration for a half-maximal effect (EC50) in test [2] (setting [6]) is 160 nM; in test [4] (setting [7]) it was 630 nM.
Turning to `C[C@@H]1CN(c2cc(=O)n(C)c3ccc(C#N)nc23)[C@@H](C)CN1C(c1ccc(F)cc1)c1nc(C2CC2)no1` (single isomer, unassigned) [Example 735], the half-inhibitory concentration (IC50) in test [1] (DGKα liposome (LIPGLO) assay) is 240 nM; in test [3] (DGKζ liposome (LIPGLO) assay) it was 61 nM. The EC50 was found to be 0.74 nM in test [2] (setting [8]) and 140 nM in test [4] (setting [9]).
For `Cn1c(=O)cc(N2CCN(C(c3ccc(F)cc3)c3ccc(F)cc3)C(C#N)C2)c2nc(C#N)ccc21` (stereo not shown) [Example 43, 8-(4-(bis(4-fluorophenyl)methyl)-3-cyanopiperazin-1-yl)-5-methyl-6-oxo-5,6-dihydro-1,5-naphthyridine-2-carbonitrile], the 50% inhibitory concentration (IC50) in test [1] (liposome (LIPGLO) assay) turned out to be 6200 nM; in test [3] (liposome (LIPGLO) assay), 3100 nM. In addition, the half-maximal effective concentration (EC50) in test [2] (setting [6]) is 87 nM; in test [4] (setting [7]) it was 1200 nM.
The like results for `C[C@@H]1CN(c2cc(=O)n(C)c3ccc(C#N)nc23)[C@@H](C)CN1C(c1ccccc1)c1cc(F)cc(F)c1` (stereo partly drawn) [Example 288, 8-[(2S,5R)-4-[(3,5-difluorophenyl)(phenyl)methyl]-2,5-dimethylpiperazin-1-yl]-5-methyl-6-oxo-5,6-dihydro-1,5-naphthyridine-2-carbonitrile] were, in that order, 2000 nM, 2200 nM, 26 nM and 810 nM.
On to `[2H]C(C)(c1ccc(F)cc1)N1C[C@H](C)N(c2c(F)c(=O)n(C)c3ccc(C#N)nc23)C[C@H]1C` (single isomer, unassigned) [Example 425], for which the 50% inhibitory concentration (IC50) in test [1] (liposome (LIPGLO) assay) amounted to 58 nM; in test [3] (liposome (LIPGLO) assay), 1500 nM. Also, the half-maximal effective concentration (EC50) in test [2] (setting [6]) is 110 nM; in test [4] (setting [5]), 270 nM.
Regarding `Cc1ccc(C(c2cccc(F)c2)N2C[C@H](C)N(c3cc(=O)n(C)c4ccc(C#N)nc34)C[C@H]2C)nc1` (single isomer, unassigned) [Example 216], the IC50 was 180 nM in test [1] (liposome (LIPGLO) assay) and 210 nM in test [3] (liposome (LIPGLO) assay). Moreover, the EC50 is 74 nM in test [2] (setting [5]) and 130 nM in test [4] (setting [5]).
Turning to `C[C@@H]1CN(c2cc(=O)n(C)c3ccc(C#N)nc23)[C@@H](C)CN1C(c1ccc(F)cc1)c1ccc(C(F)F)cc1` (single isomer, unassigned) [Example 666], the half-maximal inhibitory concentration (IC50) came to 720 nM in test [1] (liposome (LIPGLO) assay) and 2000 nM in test [3] (liposome (LIPGLO) assay). In addition, the 50% effective concentration (EC50) in test [2] (setting [5]) stood at 5.6 nM; in test [4] (setting [7]), 920 nM.
Regarding `C[C@@H]1CN(c2cc(=O)n(C)c3ccc(C#N)nc23)[C@@H](C)CN1C(c1ccc(Cl)cc1)c1ccccn1` (single isomer, unassigned) [Example 381], the values for the IC50 in test [1] (liposome (LIPGLO) assay) and in test [3] (liposome (LIPGLO) assay) were 360 nM and 500 nM, respectively. Further, the concentration giving a half-maximal response (EC50) is 3.9 nM in test [2] (setting [6]) and 180 nM in test [4] (setting [5]).
As for `C[C@@H]1CN(c2cc(=O)n(C)c3ccc(C#N)nc23)[C@@H](C)CN1C(c1ccc(Cl)cc1)c1ccc(Cl)cn1` (single isomer, unassigned) [Example 202], the IC50 came to 110 nM in test [1] (liposome (LIPGLO) assay) and 490 nM in test [3] (liposome (LIPGLO) assay). For the same compound, the half-maximal effective concentration (EC50) in test [2] (setting [5]) was found to be 8.3 nM; in test [4] (setting [5]), 380 nM.
For `[2H]C([2H])(c1c(F)cc(F)cc1F)N1C[C@H](C)N(c2cc(=O)n(C)c3ccc(C#N)nc23)C[C@H]1C` [Example 430, 8-((2S,5R)-2,5-dimethyl-4-((2,4,6-trifluorophenyl)methyl-d2)piperazin-1-yl)-5-methyl-6-oxo-5,6-dihydro-1,5-naphthyridine-2-carbonitrile], the IC50 in test [1] (liposome (LIPGLO) assay) stood at 410 nM; in test [3] (liposome (LIPGLO) assay), 2000 nM. For the same compound, the EC50 worked out at 46 nM in test [2] (setting [6]) and 500 nM in test [4] (setting [7]).
As for `C[C@@H]1CN(c2c(C#N)c(=O)n(C)c3ccc(C#N)nc23)CCN1C(c1ccc(F)cc1)c1ccccn1` (single isomer, unassigned) [Example 918], the results for the IC50 in test [1] (DGKα liposome (LIPGLO) assay) and in test [3] (DGKζ liposome (LIPGLO) assay) were 52 nM and 380 nM, respectively. Moreover, the EC50 is 130 nM in test [2] (setting [8]) and 380 nM in test [4] (setting [10]).
Consider `C[C@@H]1CN(c2cc(=O)n(C)c3ccc(C#N)nc23)[C@@H](C)CN1C(c1ccccc1)c1cccc(F)c1` (stereo partly drawn) [Example 296, 8-[(2S,5R)-4-[(3-fluorophenyl)(phenyl)methyl]-2,5-dimethylpiperazin-1-yl]-5-methyl-6-oxo-5,6-dihydro-1,5-naphthyridine-2-carbonitrile], for which the values for the half-maximal inhibitory concentration (IC50) in test [1] (liposome (LIPGLO) assay) and in test [3] (liposome (LIPGLO) assay) were 630 nM and 900 nM, respectively. The EC50 was determined as 400 nM in test [2] (setting [6]) and 1200 nM in test [4] (setting [7]).
In the case of `C[C@@H]1CN(c2c(F)c(=O)n(C)c3ccc(C#N)nc23)[C@@H](C)CN1C(c1ccc(F)cc1)c1ccc(C#N)cc1` (stereo partly drawn) [Example 328, 8-((2S,5R)-4-((4-cyanophenyl)(4-fluorophenyl)methyl)-2,5-dimethylpiperazin-1-yl)-7-fluoro-5-methyl-6-oxo-5,6-dihydro-1,5-naphthyridine-2-carbonitrile], the IC50 in test [1] (liposome (LIPGLO) assay) turned out to be 1200 nM; in test [3] (liposome (LIPGLO) assay), 2600 nM. Further, the values for the 50% effective concentration (EC50) in test [2] (setting [5]) and in test [4] (setting [5]) were 6000 nM and 1000 nM, respectively.
For `Cc1ccc(C(c2ccc(F)cc2)N2CCN(c3c(C#N)c(=O)n(C)c4ccc(C#N)nc34)C[C@H]2C)cc1` (stereo partly shown) [Example 889], the results for the half-maximal inhibitory concentration (IC50) in test [1] (DGKα liposome (LIPGLO) assay) and in test [3] (DGKζ liposome (LIPGLO) assay) were 1300 nM and 370 nM, respectively. Besides, the figures for the concentration for a half-maximal effect (EC50) in test [2] (setting [8]) and in test [4] (setting [10]) were 220 nM and 670 nM, respectively.
As for `Cc1ccc(C(c2ccc(F)cn2)N2C[C@H](C)N(c3c(C#N)c(=O)n(C)c4ccc(C#N)nc34)C[C@H]2C)cc1` (stereo partly shown) [Example 833], the concentration for half-maximal inhibition (IC50) in test [1] (DGKα liposome (LIPGLO) assay) came to 2000 nM; in test [3] (DGKζ liposome (LIPGLO) assay) it was 2800 nM. The figures for the EC50 in test [2] (setting [8]) and in test [4] (setting [9]) were 320 nM and 680 nM, respectively.
Take `C[C@@H]1CN(c2cc(=O)n(C)c3ccc(C#N)nc23)[C@@H](C)CN1Cc1ccc(F)cc1C(F)F` [Example 242, 8-[(2S,5R)-4-{[2-(difluoromethyl)-4-fluorophenyl]methyl}-2,5-dimethylpiperazin-1-yl]-5-methyl-6-oxo-5,6-dihydro-1,5-naphthyridine-2-carbonitrile]: the IC50 amounted to 4400 nM in test [1] (liposome (LIPGLO) assay) and 970 nM in test [3] (liposome (LIPGLO) assay). The EC50 in test [2] (setting [6]) amounted to 170 nM; in test [4] (Homo sapiens, normalized to 3 μM reference compound with anti-CD3 plus anti-CD28 as 100% activation) it was 1500 nM.
As for `Cc1ccc(C(c2ccc(Cl)cc2)N2C[C@H](C)N(c3cc(=O)n(C)c4ccc(C#N)nc34)C[C@H]2C)nc1` (single isomer, unassigned) [Example 214], the results for the IC50 in test [1] (liposome (LIPGLO) assay) and in test [3] (liposome (LIPGLO) assay) were 72 nM and 290 nM, respectively. The EC50 came out at 120 nM in test [2] (setting [5]) and 620 nM in test [4] (setting [5]).
Consider `C[C@@H]1CN(c2cc(=O)n(C)c3ccc(C#N)nc23)[C@@H](C)CN1Cc1cc(F)ccc1F` [Example 262, 8-[(2S,5R)-4-[(2,5-difluorophenyl)methyl]-2,5-dimethylpiperazin-1-yl]-5-methyl-6-oxo-5,6-dihydro-1,5-naphthyridine-2-carbonitrile], for which the 50% inhibitory concentration (IC50) in test [1] (liposome (LIPGLO) assay) worked out at 640 nM; in test [3] (liposome (LIPGLO) assay) it was 2500 nM. The figures for the EC50 in test [2] (setting [6]) and in test [4] (setting [7]) were 310 nM and 7100 nM, respectively.

The values are drawn from patent publication US10669272B2, “Substituted naphthyridinone compounds useful as T cell activators” (BRISTOL-MYERS SQUIBB COMPANY, priority 2018, dated 2020).
